From patent publication US20180116220A1, “NOVEL TRIAZOLE DERIVATIVES” (BAYER CROPSCIENCE AKTIENGESELLSCHAFT, priority 2015, published 2018)
Values joined by “and” are separate entries in the source; they are usually repeats but may differ in a detail not shown here. Identical values can stand only once. Marks after values point to notes of the source that are not given here.

Test: LogP by HPLC on reversed phase columns (EEC directive 79/831 Annex V.A8)
Type: physicochemical
Method: [table] If more than one LogP value is available within the same method, all the values are given and separated by “+”. […] Lambda-max-values were determined using UV-spectra from 200 nm to 400 nm and the peak values of the chromatographic signals. Measurement of LogP values was performed as outlined above.

[1] = [a] LC-UV, acidic range, 0.1% formic acid in water and acetonitrile as eluent
[2] = [b] LC-UV, neutral range, 0.001 molar ammonium acetate solution in water and acetonitrile as eluent

LogP [1] | LogP [2] | SMILES
4.71^[a] |  | Fc1ccc(C(Cn2cncn2)(OCC2CC2)C2(Oc3ccc(Cl)cc3)CC2)c(F)c1 (racemic) [Example I-35]
3.87^[a] |  | O=C(c1ccc(F)cc1F)C1(Oc2c(F)cccc2F)CC1 [IV-17]
4.34^[a] |  | O=C(c1ccc(F)cc1F)C1(Oc2c(F)cccc2Br)CC1 [IV-20]
4.34^[a] |  | O=C(c1ccc(F)cc1F)C1(Oc2cccc(Cl)c2)CC1 [IV-24]
4.66 | 4.74 | Fc1ccc(C2(C3(Oc4ccc(Br)cc4)CC3)CO2)c(F)c1 (stereo not drawn) [Example V-7]
4.50^[a]; 4.50^[b] | 4.50^[a]; 4.50^[b] | Fc1ccc(C2(C3(Oc4ccc(Cl)cc4F)CC3)CO2)c(F)c1 (stereo not drawn) [Example V-2]
4.11^[a] |  | Fc1ccc(C2(C3(Oc4c(F)cccc4F)CC3)CO2)c(F)c1 (stereo not drawn) [Example V-18]
4.41^[a] |  | O=C(c1ccc(F)cc1F)C1(Oc2ccc(Cl)c(F)c2)CC1 [IV-25]
4.89^[a] |  | Fc1ccc(C2(C3(Oc4ccc(Br)c(F)c4)CC3)CO2)c(F)c1 (racemic) [Example V-24]
4.35 | 4.40 | O=C(c1ccc(F)cc1F)C1(Oc2ccccc2I)CC1 [IV-8]
3.55^[a] |  | OC(Cn1cncn1)(c1ccc(F)cc1F)C1(Oc2cccc(Cl)c2)CC1 (racemic) [Example I-39]
3.44^[a] |  | COC(Cn1cncn1)(c1ccc(F)cc1F)C1(Oc2ccc(F)cc2F)CC1 (racemic) [Example I-26]
 | 5.40 and 5.48 | Cc1cc(I)ccc1OC1(C2(c3ccc(F)cc3F)CO2)CC1 (stereo not drawn) [Example V-12]
4.82 | 4.90 | Fc1ccc(C2(C3(Oc4cccc(I)c4)CC3)CO2)c(F)c1 (stereo not drawn) [Example V-9]
4.44^[a] |  | O=C(c1ccc(F)cc1F)C1(Oc2ccc(C(F)(F)F)cc2)CC1 [IV-23]
3.48^[a] |  | COC(Cn1cncn1)(c1ccc(F)cc1F)C1(Oc2c(F)cccc2F)CC1 (racemic) [Example I-21]
5.11^[a] |  | CC(C)COC(Cn1cncn1)(c1ccc(F)cc1F)C1(Oc2ccc(Cl)cc2)CC1 (racemic) [Example I-37]
4.21^[a]; 4.21^[b] | 4.21^[a]; 4.21^[b] | O=C(c1ccc(F)cc1F)C1(Oc2ccc(F)cc2Cl)CC1 [IV-4]
4.87 | 4.95 | Fc1ccc(C2(C3(Oc4ccc(I)cc4)CC3)CO2)c(F)c1 (stereo not drawn) [Example V-10]
4.57 | 4.65 | Fc1ccc(C2(C3(Oc4ccc(Br)cc4F)CC3)CO2)c(F)c1 (stereo not drawn) [Example V-11]
3.94^[a] |  | OC(Cn1cncn1)(c1ccc(Cl)cc1F)C1(Oc2ccc(Cl)cc2)CC1 (racemic) [Example I-27]
3.51^[a] |  | OC(Cn1cncn1)(c1ccc(F)cc1F)C1(Oc2c(F)cccc2Br)CC1 (racemic) [Example I-24]

LogP [1] | LogP [2] | SMILES
3.70^[a] |  | OC(Cn1cncn1)(c1ccc(F)cc1F)C1(Oc2ccc(C(F)(F)F)cc2)CC1 (racemic) [Example I-38]
3.54^[a]; | 3.54^[b] | OC(Cn1cncn1)(c1ccc(F)cc1F)C1(Oc2cccc(Br)c2)CC1 (racemic) [Example I-06]
4.45 | 4.44 | Fc1ccc(C2(C3(Oc4ccc(F)cc4Cl)CC3)CO2)c(F)c1 (stereo not drawn) [Example V-3]
5.06 | 5.08 | Cc1cc(I)ccc1OC1(C(=O)c2ccc(F)cc2F)CC1 [IV-12]
3.63^[a] |  | OC(Cn1cncn1)(c1ccc(F)cc1F)C1(Oc2ccc(Cl)c(F)c2)CC1 (racemic) [Example I-40]
4.80^[a] |  | Fc1ccc(C2(C3(Oc4c(Cl)cccc4Cl)CC3)CO2)c(F)c1 (stereo not drawn) [Example V-19]
3.70^[a]; | 3.77^[b] | OC(Cn1cncn1)(c1ccc(F)cc1F)C1(Oc2ccc(OC(F)(F)F)cc2)CC1 (racemic) [Example I-14]
4.72^[a] |  | O=C(c1ccc(Cl)cc1F)C1(Oc2ccc(Cl)cc2F)CC1 [IV-22]
4.21^[a] |  | O=C(c1ccc(F)cc1F)C1(Oc2cccc(Cl)c2F)CC1 [IV-28]
4.75^[a] |  | O=C(c1ccc(Cl)cc1F)C1(Oc2ccc(Cl)cc2)CC1 [IV-21]
4.14 | 4.19 | O=C(c1ccc(F)cc1F)C1(Oc2ccccc2Br)CC1 [IV-6]
4.49 | 4.53 | O=C(c1ccc(F)cc1F)C1(Oc2ccc(OC(F)(F)F)cc2)CC1 [IV-15]
4.36^[a] |  | Fc1ccc(C2(C3(Oc4ccc(F)c(F)c4)CC3)CO2)c(F)c1 (racemic) [Example V-27]
4.29^[a] |  | COC(Cn1cncn1)(c1ccc(Cl)cc1F)C1(Oc2ccc(Cl)cc2)CC1 (racemic) [Example I-28]
5.00^[a] |  | Fc1cc(Cl)ccc1OC1(C2(c3ccc(Cl)cc3F)CO2)CC1 (racemic) [Example V-23]
3.94^[a] |  | O=C(c1ccc(F)cc1F)C1(Oc2ccc(OC(F)F)cc2)CC1 [IV-27]
4.22^[a] |  | O=C(c1ccc(F)cc1F)C1(Oc2ccc(Cl)cc2)CC1 [IV-2]
4.49^[a] |  | Fc1ccc(C2(C3(Oc4c(F)cccc4Cl)CC3)CO2)c(F)c1 (stereo not drawn) [Example V-20]
5.25^[a]; 5.25^[b] | 5.25^[a]; 5.25^[b] | Cc1cc(Br)ccc1OC1(C2(c3ccc(F)cc3F)CO2)CC1 (stereo not drawn) [Example V-14]
3.99^[a] |  | O=C(c1ccc(F)cc1F)C1(Oc2ccc(Br)c(F)c2)CC1 [IV-26]
4.34^[a] |  | C=CCOC(Cn1cncn1)(c1ccc(F)cc1F)C1(Oc2ccc(Cl)cc2)CC1 (racemic) [Example I-33]
4.70 | 4.86 | Fc1ccc(C2(C3(Oc4ccc(OC(F)(F)F)cc4)CC3)CO2)c(F)c1 (stereo not drawn) [Example V-15]

LogP [1] | LogP [2] | SMILES
4.36 | 4.43 | Fc1ccc(C2(C3(Oc4ccccc4Br)CC3)CO2)c(F)c1 (stereo not drawn) [Example V-5]
4.32^[a] |  | CCOC(Cn1cncn1)(c1ccc(F)cc1F)C1(Oc2ccc(Cl)cc2)CC1 (racemic) [Example I-30]
3.73^[a] |  | O=C(c1ccc(F)cc1F)C1(Oc2ccccc2F)CC1 [IV-5]
4.24^[a] |  | Fc1ccc(C2(C3(Oc4ccc(OC(F)F)cc4)CC3)CO2)c(F)c1 (racemic) [Example V-25]
4.88 | 4.87 | Cc1cc(Br)ccc1OC1(C(=O)c2ccc(F)cc2F)CC1 [IV-14]
3.89^[a] |  | OC(Cn1cncn1)(c1ccc(Cl)cc1F)C1(Oc2ccc(Cl)cc2F)CC1 (racemic) [Example I-29]
4.32 | 4.36 | O=C(c1ccc(F)cc1F)C1(Oc2cccc(Br)c2)CC1 [IV-7]
4.14 | 4.21 | N#Cc1cc(I)ccc1OC1(C2(c3ccc(F)cc3F)CO2)CC1 (stereo not drawn) [Example V-13]
3.78^[a] |  | COC(Cn1cncn1)(c1ccc(F)cc1F)C1(Oc2c(F)cccc2Cl)CC1 (racemic) [Example I-23]
4.63 | 4.71 | Fc1ccc(C2(C3(Oc4cccc(Br)c4)CC3)CO2)c(F)c1 (stereo not drawn) [Example V-6]
4.86 | 4.92 | O=C(c1ccc(F)cc1F)C1(Oc2ccc(SC(F)(F)F)cc2)CC1 [IV-16]
4.09^[a]; | 4.13^[b] | OC(Cn1cncn1)(c1ccc(F)cc1F)C1(Oc2ccc(SC(F)(F)F)cc2)CC1 (racemic) [Example I-15]
4.06^[a] |  | COC(Cn1cncn1)(c1ccc(F)cc1F)C1(Oc2c(Cl)cccc2Cl)CC1 (racemic) [Example I-20]
3.02^[a] |  | OC(Cn1cncn1)(c1ccc(F)cc1F)C1(Oc2c(F)cccc2F)CC1 (racemic) [Example I-18]
5.23 | 5.24 | Fc1ccc(C2(C3(Oc4ccc(SC(F)(F)F)cc4)CC3)CO2)c(F)c1 (stereo not drawn) [Example V-16]
4.59^[a] |  | Fc1ccc(C2(C3(Oc4c(F)cccc4Br)CC3)CO2)c(F)c1 (stereo not drawn) [Example V-21]
4.50 | 4.53 | O=C(c1ccc(F)cc1F)C1(Oc2cccc(I)c2)CC1 [IV-9]
4.54 | 4.57 | O=C(c1ccc(F)cc1F)C1(Oc2ccc(I)cc2)CC1 [IV-10]
3.76^[a] |  | OC(Cn1cncn1)(c1ccc(F)cc1F)C1(Oc2c(Cl)cccc2Cl)CC1 (racemic) [Example I-19]
4.59^[a] |  | O=C(c1ccc(F)cc1F)C1(Oc2c(Cl)cccc2Cl)CC1 [IV-18]
3.81^[a] |  | COC(Cn1cncn1)(c1ccc(F)cc1F)C1(Oc2ccc(Cl)cc2)CC1 (racemic) [Example I-36]

SMILES | LogP [1] | LogP [2]
OC(Cn1cncn1)(c1ccc(F)cc1F)C1(Oc2ccccc2Br)CC1 (racemic) [Example I-05] | 3.44^[a]; | 3.43^[b]
Cc1cc(I)ccc1OC1(C(O)(Cn2cncn2)c2ccc(F)cc2F)CC1 (racemic) [Example I-12] | 4.25^[a]; | 4.30^[b]
CC(=O)OC(Cn1cncn1)(c1ccc(F)cc1F)C1(Oc2ccc(Cl)cc2)CC1 (racemic) [Example I-17] | 3.47^[a]; | 3.47^[b]
OC(Cn1cncn1)(c1ccc(F)cc1F)C1(Oc2ccccc2F)CC1 (racemic) [Example I-03] | 3.04^[a] | 
OC(Cn1cncn1)(c1ccc(F)cc1F)C1(Oc2ccc(Cl)cc2)CC1 (single isomer, unassigned) [Example I-41] | 3.48^[a] | 
OC(Cn1cncn1)(c1ccc(F)cc1F)C1(Oc2ccc(Cl)cc2F)CC1 (racemic) [Example I-01] | 3.52^[a]; | 3.50^[b]
OC(Cn1cncn1)(c1ccc(F)cc1F)C1(Oc2ccc(Br)cc2)CC1 (racemic) [Example I-07] | 3.59^[a]; | 3.59^[b]
